Data on 58 compounds can be found in US20070037828A1, “Pyrazolopyrimidines” (priority 2003, published 2007).

This data set is described as follows: logP determination through HPLC (EEC directive 79/831 Annex V. A8). Format: physicochemical.
[1] abbreviates: HPLC, gradient method, acetonitrile/0.1% aqueous phosphoric acid.

Like-named read-outs stand apart in the source and are kept apart here.

Regarding `CC(C)Nc1c(-c2cc(Cl)sc2Cl)c(Cl)nc2c(C#N)cnn12` [Example 11], the lipophilicity (logP) (commonly the decadic logarithm of the partition coefficient of the neutral form, usually between octanol and water) came out at 4.41. As for `N#Cc1cnn2c(O)c(-c3ncccc3C(F)(F)F)c(O)nc12` [Example 68, 3-cyano-6-(3-trifluoromethyl-pyridin-2-yl)-pyrazolo[1,5-a]pyrimidin-5,7-diol], under setting [1], the chromatographic logP (in general, lipophilicity estimated from chromatographic retention) amounted to 0.29. `CC(Nc1c(-c2ncncc2Cl)c(Cl)nc2c(Cl)cnn12)C(C)(C)C` (stereo not shown) [Example 5]: the logP was determined as 4.36. Consider `N#Cc1cnn2c(N3CCOCC3)c(-c3ccsc3)c(Cl)nc12` [Example 44], for which, under setting [1], the log partition coefficient (logP) is listed as 2.90. Under setting [1], `CC(C)CN(C)c1c(-c2ccsc2)c(Cl)nc2c(C#N)cnn12` [Example 40] showed a lipophilicity (logP) of 4.13. `CC(C)(C)CNc1c(-c2cc(Cl)sc2Cl)c(Cl)nc2c(C#N)cnn12` [Example 15]: the logP is on record as 5.31.

Turning to `C=Cc1cnn2c(N3CCC(C)CC3)c(-c3ncncc3Cl)c(Cl)nc12` [Example 75], under setting [1], the chromatographic logP worked out at 4.7. Under setting [1], `N#Cc1cnn2c(N3CCCC3)c(-c3ccsc3)c(Cl)nc12` [Example 41] came in with a log partition coefficient (logP) of 3.53. On to `CC1CCN(c2c(-c3ncncc3Cl)c(Cl)nc3c(C=O)cnn23)CC1` [Example 74, 5-chloro-6-(5-chloro-pyrimidin-4-yl)-3-formyl-7-(4-methyl-piperidin-1-yl)-pyrazolo[1,5-a]-pyrimidine], for which the chromatographic logP under setting [1] came to 3.04. In turn, `CC(Nc1c(-c2ncncc2F)c(Cl)nc2c(C#N)cnn12)C(F)(F)F` (stereo not shown) [Example 58] yielded a logP of 2.65. In the case of `N#Cc1cnn2c(NCC(F)(F)F)c(-c3ccsc3)c(Cl)nc12` [Example 8], under setting [1], the logP came out at 3.21. For `CC(Nc1c(-c2ncncc2Cl)c(Cl)nc2c(C=O)cnn12)C(C)(C)C` (stereo not shown) [Example 62], the logP worked out at 3.12.

In turn, `CC1CCCCN1c1c(-c2ccsc2)c(Cl)nc2c(C#N)cnn12` (stereo not shown) [Example 42] showed a logP under setting [1] of 4.27.

Regarding `CC(C)CC(C)Nc1c(-c2ccsc2)c(Cl)nc2c(C#N)cnn12` (stereo not shown) [Example 6], the logP under setting [1] is listed as 4.46. In turn, `CC(C)CC(C)Nc1c(-c2cc(Cl)sc2Cl)c(Cl)nc2c(C#N)cnn12` (stereo not shown) [Example 29] showed a lipophilicity (logP) of 5.59. Still for that read-out and setting: to `CC1CCN(c2c(-c3ncncc3F)c(Cl)nc3c(C#N)cnn23)CC1` [Example 63] belongs 3.20; to `CC(C)C(C)Nc1c(-c2cc(Cl)sc2Cl)c(Cl)nc2c(C#N)cnn12` (stereo not shown) [Example 24], 5.19. `COCCN(C)c1c(-c2ccsc2)c(Cl)nc2c(C#N)cnn12` [Example 51] registered a logP under setting [1] of 3.17. Still for that read-out and setting: to `CC1CN(c2c(-c3ccsc3)c(Cl)nc3c(C#N)cnn23)CC(C)O1` (stereo not shown) [Example 48] belongs 3.53; to `CCCN(CC1CC1)c1c(-c2ccsc2)c(Cl)nc2c(C#N)cnn12` [Example 47], 4.51.

`N#Cc1cnn2c(N3CCCCC3)c(-c3cc(Cl)sc3Cl)c(Cl)nc12` [Example 23] came in with a logP of 6.19. Under setting [1], `COCCNc1c(-c2ccsc2)c(Cl)nc2c(C#N)cnn12` [Example 45] gave a logP of 2.94. On to `CC(Nc1c(-c2ncncc2F)c(Cl)nc2c(Cl)cnn12)C(C)(C)C` (stereo not shown) [Example 59], for which the log partition coefficient (logP) came to 4.11. Take `CC(C)C(C)Nc1c(-c2ccsc2)c(Cl)nc2c(C#N)cnn12` (stereo not shown) [Example 34]: the log partition coefficient (logP) under setting [1] stood at 4.08. On the same count and under the same terms, to `CC(Nc1c(-c2ccsc2)c(Cl)nc2c(C#N)cnn12)C(F)(F)F` (stereo not shown) [Example 7] belongs 3.53.

`CN(CCC#N)c1c(-c2cc(Cl)sc2Cl)c(Cl)nc2c(C#N)cnn12` [Example 19]: the logP is 3.90.

`N#Cc1cnn2c(N3CCCC3)c(-c3cc(Cl)sc3Cl)c(Cl)nc12` [Example 21] came in with a log partition coefficient (logP) of 4.61. Same read-out and setting: to `COCCN(C)c1c(-c2cc(Cl)sc2Cl)c(Cl)nc2c(C#N)cnn12` [Example 18] belongs 4.32. On to `N#Cc1cnn2c(NC3CCCC3)c(-c3cc(Cl)sc3Cl)c(Cl)nc12` [Example 16], for which the logP under setting [1] amounted to 5.03.

In the case of `N#Cc1cnn2c(N3CCCCC3)c(-c3ccsc3)c(Cl)nc12` [Example 49], the logP under setting [1] came out at 3.58. Turning to `CC(C)CN(C)c1c(-c2cc(Cl)sc2Cl)c(Cl)nc2c(C#N)cnn12` [Example 12], the lipophilicity (logP) worked out at 5.31. Under setting [1], `CC1CCN(c2c(-c3ccsc3)c(Cl)nc3c(C#N)cnn23)CC1` [Example 43] displayed a logP of 4.41.

Under setting [1], `N#Cc1cnn2c(NC3CCCC3)c(-c3ccsc3)c(Cl)nc12` [Example 33] yielded a lipophilicity (logP) of 3.00. The compound `CC1CN(c2c(-c3cc(Cl)sc3Cl)c(Cl)nc3c(C#N)cnn23)CC(C)O1` (stereo not shown) [Example 27] came in with a lipophilicity (logP) of 4.72. The same measure, in the same setting: to `CC(C)C(C)Nc1c(-c2ncncc2F)c(Cl)nc2ccnn12` (stereo not shown) [Example 61] belongs 2.98; to `N#Cc1cnn2c(N3CCC(F)(F)CC3)c(-c3ccsc3)c(Cl)nc12` [Example 36], 3.61; to `CC(C)C(C)Nc1c(-c2ncncc2Cl)c(Cl)nc2c(C#N)cnn12` (stereo not shown) [Example 4], 3.13. `N#Cc1cnn2c(N3CCC(C(F)(F)F)CC3)c(-c3ccsc3)c(Cl)nc12` [Example 53] returned a log partition coefficient (logP) of 4.03. Take `CCN(CCC#N)c1c(-c2ccsc2)c(Cl)nc2c(C#N)cnn12` [Example 52]: the logP under setting [1] is listed as 2.98. Same read-out and setting: the same measure for `CC(C)(C)CNc1c(-c2ccsc2)c(Cl)nc2c(C#N)cnn12` [Example 32]: 4.18. As for `N#Cc1cnn2c(N3CCOCC3)c(-c3cc(Cl)sc3Cl)c(Cl)nc12` [Example 28], the log partition coefficient (logP) is 3.85. On the same count and under the same terms, the same measure for `CC(Nc1c(-c2ncncc2Cl)c(Cl)nc2c(C#N)cnn12)C(C)(C)C` (stereo not shown) [Example 3]: 3.54; for `CCC(C)Nc1c(-c2cc(Cl)sc2Cl)c(Cl)nc2c(C#N)cnn12` (stereo not shown) [Example 10]: 4.82; for `CC1CCCN1c1c(-c2ncncc2Cl)c(Cl)nc2c(C=O)cnn12` (stereo not shown) [Example 54]: 2.44. The same measure, in the same setting: to `CC(Nc1c(-c2ncncc2F)c(Cl)nc2ccnn12)C(C)(C)C` (stereo not shown) [Example 60] belongs 3.42. `N#Cc1cnn2c(Cl)c(-c3ncccc3C(F)(F)F)c(Cl)nc12` [Example 65, 3-cyano-5,7-dichloro-6-(3-trifluoromethyl-pyridin-2-yl)-pyrazolo-[1,5-a]pyrimidine] displayed a chromatographic logP under setting [1] of 2.68. For `CCCN(CC1CC1)c1c(-c2cc(Cl)sc2Cl)c(Cl)nc2c(C#N)cnn12` [Example 20], the logP is 5.78. For `CCC(C)Nc1c(-c2ccsc2)c(Cl)nc2c(C#N)cnn12` (stereo not shown) [Example 38], the lipophilicity (logP) under setting [1] is 3.74. Compound `COCCNc1c(-c2cc(Cl)sc2Cl)c(Cl)nc2c(C#N)cnn12` [Example 17] displayed a logP of 3.90. Same read-out and setting: to `CC(Nc1c(-c2cc(Cl)sc2Cl)c(Cl)nc2c(C#N)cnn12)C(F)(F)F` (single isomer, unassigned) [Example 31] belongs 4.46; to `CC(C)C(C)Nc1c(-c2ncncc2F)c(Cl)nc2c(C#N)cnn12` (stereo not shown) [Example 57], 2.92.

For `CC(Nc1c(-c2ncncc2F)c(Cl)nc2c(C#N)cnn12)C(C)(C)C` (stereo not shown) [Example 56], the log partition coefficient (logP) is listed as 3.29. Compound `CC(Nc1c(-c2ncncc2Cl)c(Cl)nc2c(C=O)cnn12)C(F)(F)F` (single isomer, unassigned) [Example 55] had a lipophilicity (logP) of 2.46.

`COC(=O)c1cnn2c(NC(C)C(C)(C)C)c(-c3ncncc3F)c(Cl)nc12` (stereo not shown) [Example 64] yielded a logP of 3.15. As to `CC(C)CNc1c(-c2ccsc2)c(Cl)nc2c(C#N)cnn12` [Example 37], the logP under setting [1] is recorded as 3.78. Same read-out and setting: to `CC(C)Nc1c(-c2ccsc2)c(Cl)nc2c(C#N)cnn12` [Example 39] belongs 3.37. `CC(C)CNc1c(-c2cc(Cl)sc2Cl)c(Cl)nc2c(C#N)cnn12` [Example 9] registered a logP of 4.82. Still for that read-out and setting: the same measure for `N#Cc1cnn2c(NCC(F)(F)F)c(-c3cc(Cl)sc3Cl)c(Cl)nc12` [Example 30]: 4.06.
